Holding throughout (assay type): cell-based, human
Experiment [1] has as its system Hs27 non-malignant skin fibroblasts. The experiment is described as follows: MTT cell proliferation assay. The conditions noted are these: Hs27, MTT 72 h. The procedure: (§1) Cell Proliferation Assays. The antiproliferative activity of XB05 was tested using a previously published 3-(4,5-dimethylthiazol-2-yl)-2,5-diphenyltetrazolium bromide (MTT) assay protocol (Girvan et al., “AGRO100 inhibits activation of nuclear factor-kappaB (NF-kappaB) by forming a complex with NF-kappaB essential modulator (NEMO) and nucleolin” Molecular Cancer Therapeutics (2006) Vol. 5, No. 7, pp. 1790-1799). Briefly, cells were seeded in quadruplicate wells in 96-well plates and allowed to adhere overnight. […] Plates were incubated with XB05 for 72 h, during which the cell culture medium was not changed. Cell viability was determined and the background corresponding to medium alone (no cells) was subtracted. Data were analyzed as described in the Brief Description of the Drawings.
(§2) XB05 has Cancer-Selective Antiproliferative Activity. XB05 was tested to determine its antiproliferative activity in a variety of human cell lines that are derived from malignant tissues or from non-malignant (immortalized but not transformed) cells and listed in FIG. 1B. As described in Materials and Methods, cells were treated with varying concentrations of XB05 for 72 h and evaluated using the MTT cell proliferation assay.

Experiment [2] deals with U937 myeloid leukemia cells. The experiment is described as follows: MTT cell proliferation assay. The procedure:
as §1, §2
On the technique in general: Tetrazolium assays rely on reduction of a dye to a coloured formazan, in cell work by metabolically active cells.

Experiment [3] has as its system A549 non-small cell lung cancer cells. Description: MTT cell proliferation assay. As to conditions: A549, MTT 72 h. The procedure:
as §1, §2

The subject of experiment [4] is U937 cells. Description: Western blot for PARP-1 and caspase-3 cleavage. As to conditions: U937, 1 μM XB05. The procedure: (§3) FIG. 3: XB05 Induces Apoptotic and Nonapoptotic Cell Death in Malignant Cell Lines. (A) Trypan blue exclusion assay for three human cell lines following treatment with XB05 for 72 h at the concentrations indicated. Data points represent the mean+/−SEM for three independent experiments. (B) Representative phase contrast microscopy images of cells treated with vehicle (72 h), XB05 (72 h with 1 μM for U937 and Hs27, or 2 μM for A549), or 6 μg/mL camptothecin (U937 for 6 h, A549 and Hs27 for 48 h). Cells undergoing apoptotic (black arrows) or non-apoptotic (white arrows) cell death are indicated. (C) Whole cell extracts from cells treated with vehicle, camptothecin, or XB05, as described in part B were western blotted for biochemical markers of apoptosis and GAPDH (loading control). […]
(§4) Western Blotting. […] Proteins were detected using the following primary antibody concentrations: PARP-1 (1:1000), cleaved caspase-3 (1:1000), γ-H2AX (Ser139) ([…]), phospho-eIF2α (Ser51) (1:1000), eIF2α (1:1000), Bip (1:1000), Nrf2 (1:1000), Ku-70 (1:1000) and GAPDH (1:1000). […] Where indicated, band intensities were quantified using the UN-SCAN-IT Gel digitizing software (Silk Scientific, Orem Utah) and normalized to vehicle control.
In general terms: A western blot detects proteins with antibodies after separation by electrophoresis.

In experiment [5] the test system is A549 cells. The experiment is described as follows: Western blot for PARP-1 and caspase-3 cleavage. The conditions noted are these: A549, 2 μM XB05. The procedure: as §3, §4
Experiment [6] has as its system U937 cells. The experiment is described as follows: Trypan blue exclusion assay. As to conditions: U937, 1 μM, 72 h. The procedure: (§5) FIG. 3: XB05 Induces Apoptotic and Nonapoptotic Cell Death in Malignant Cell Lines. (A) Trypan blue exclusion assay for three human cell lines following treatment with XB05 for 72 h at the concentrations indicated. Data points represent the mean+/−SEM for three independent experiments. (B) Representative phase contrast microscopy images of cells treated with vehicle (72 h), XB05 (72 h with 1 μM for U937 and Hs27, or 2 μM for A549), or 6 μg/mL camptothecin (U937 for 6 h, A549 and Hs27 for 48 h). Cells undergoing apoptotic (black arrows) or non-apoptotic (white arrows) cell death are indicated. (C) Whole cell extracts from cells treated with vehicle, camptothecin, or XB05, as described in part B were western blotted for biochemical markers of apoptosis and GAPDH (loading control). Apoptosis is indicated by cleavage of full-length PARP-1 (116 kDa) to an 89 kDa fragment, and by appearance of bands (17 kDa, 19 kDa) recognized by an antibody specific to cleaved (activated) forms of caspase-3. (D) Flow cytometric analysis of annexin V-FITC/propidium Iodide (PI) staining for malignant cells treated with vehicle, camptothecin or XB05 as described in part B, in the presence or absence of the pan-caspase inhibitor Z-VAD-fmk (100 μM).
(§6) After 72 h, cells were trypsinized (in the case of adherent cells), stained with trypan blue solution (0.4%) (BioRad, Hercules Calif.) and cell number and percent viability determined on a TC10 automated cell counter (BioRad) using triplicate measurements for each sample. Phase contrast microscopy images were obtained on an EVOSfI digital inverted microscope (Advanced Microscopy Group, Bothell, Wash.).

Experiment [7] deals with Hs27 cells. Description: Trypan blue exclusion assay. The conditions noted are these: Hs27, 72 h. The procedure: as §5, §6
Experiment [8] relates to A549 cells. Description: Trypan blue exclusion assay. As to conditions: A549, 2 μM, 72 h. The procedure: as §5, §6

Here are results for one molecule from US9737493B2, “Compositions and methods for modulating DNMT1 inhibitor activity” (University of Louisville Research Foundation, Inc., priority 2012, dated 2017).

For `CCCCCC(O)C#CC(F)(F)Br` (stereo not drawn) [XB05], the “sensitivity to XB05” value is listed as “low sensitivity” in experiment [1]; “high sensitivity” in experiment [2] (U937, MTT 72 h); “moderate sensitivity” in experiment [3]. Moreover, the GI50 (as a rule, the concentration giving 50% growth inhibition) in experiment [2] (Homo sapiens, U-937, U937, 72 h) is < 500 nM. Further, the entries for the “time at which PARP-1 and caspase-3 cleavage were apparent” value in experiment [4] and in experiment [5] were ≤ 24 h and 48 h, respectively. Besides, the results for the “cell death (trypan blue exclusion)” value in experiment [6], in experiment [7] and in experiment [8] were “robust cell death”, “lowest levels of cell death” and “modest cell death”, respectively.
